Where two headings read alike, the source gives them in different places.
Columns and labels:
[1] = test system: ovariectomized (OVX) mice; assay: In vivo estrogenic activity (uterotrophic assay) in OVX mice; parameters: species or system mouse; settings: for increase in uterine weight vs. control group: 100 μg/kg s.c. BID, 7 days
Experimental: The mice were fed rodent chow and tap water ad libitum. The animals were ovariectomized (OVX) under isoflurane-anaesthesia via bilateral flank incisions and randomly assigned to groups (5 animals by group). Mice in the OVX control group received the vehicle alone (8% ethanol-0.4% methylcellulose) during the 7-day period. The possible estrogenic activity of tested compounds was evaluated after their administration by subcutaneous (s.c.) injection [1, 10 and 100 μg/kg, s.c., twice daily (BID)] as suspension in 8% ethanol-0.4% methylcellulose to OVX female mice for 7 days. On day 8, the mice were sacrificed by cervical dislocation. The uteri and vagina were rapidly removed, freed from fat and connective tissue and weighed. Results are the means±SEM of 5 mice per group.

[2] = test system: androgen-sensitive (AR+) Shionogi cells; assay: Proliferative (androgenic) activity on androgen-sensitive Shionogi cells; type: cell-based; settings: basal (control) 100%
Experimental: The proliferative (androgenic) activity was determined using androgen-sensitive Shionogi cells following a known literature procedure.^54 Inhibitors and reference compounds were tested at two concentrations (0.1 and 1.0 μM). The androgenicity was reported as % cell proliferation (versus the control). The basal cell proliferation (control) was fixed at 100%.

17β-HSD3 [3] = target: T1, 17β-HSD3 (Homo sapiens, UniProt P37058); assay: Inhibition of 17β-HSD3 in homogenated HEK-293 cells; type: biochemical; settings: Table 2 (17β-HSD3)
T1 construct: expressed in transfected cells; host or cells: HEK-293 (homogenate)
T1 sequence (P37058 1-310): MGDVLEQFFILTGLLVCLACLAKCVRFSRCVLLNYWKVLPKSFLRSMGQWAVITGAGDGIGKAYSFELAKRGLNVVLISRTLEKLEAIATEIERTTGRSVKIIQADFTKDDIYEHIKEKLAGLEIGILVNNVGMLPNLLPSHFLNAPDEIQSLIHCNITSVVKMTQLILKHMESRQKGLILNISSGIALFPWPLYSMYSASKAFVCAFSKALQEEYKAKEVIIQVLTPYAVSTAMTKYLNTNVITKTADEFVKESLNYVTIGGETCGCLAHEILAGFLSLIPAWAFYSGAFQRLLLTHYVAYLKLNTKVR

17β-HSD3 [4] = target: T1, 17β-HSD3; assay: Inhibition of 17β-HSD3 in intact HEK-293 cells; type: cell-based; settings: HEK293, 1 h, Table 2 (17β-HSD3)
17β-HSD1 = target: T2, 17β-HSD1 (Homo sapiens, UniProt P14061); assay: Inhibition of 17β-HSD1 in T-47D intact cells (E1 into E2); type: cell-based; settings: T47D; for inhibition at 1 µM: read-out: Inhibition (1 μM); for inhibition at 0.01 µM: read-out: Inhibition % (0.01 μM)
T2 construct: endogenous in cells; host or cells: T-47D
T2 sequence (P14061 1-328): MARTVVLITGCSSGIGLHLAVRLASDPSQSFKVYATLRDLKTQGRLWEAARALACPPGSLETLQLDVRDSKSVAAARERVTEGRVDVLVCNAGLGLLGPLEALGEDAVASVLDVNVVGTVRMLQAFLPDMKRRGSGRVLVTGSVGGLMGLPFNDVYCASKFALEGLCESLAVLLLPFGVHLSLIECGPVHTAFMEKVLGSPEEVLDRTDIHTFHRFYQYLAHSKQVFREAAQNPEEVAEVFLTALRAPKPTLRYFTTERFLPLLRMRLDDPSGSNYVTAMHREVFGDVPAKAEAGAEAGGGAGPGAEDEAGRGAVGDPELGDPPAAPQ
Experimental: T-47D cells were seeded in a 24-well plate (3000 cells/well) in medium supplemented with insulin (50 ng/mL) and 5% dextran-coated charcoal treated FBS rather than 10% FBS to remove remaining hormones. […] Each inhibitor was assessed in triplicate. After incubation, the culture medium was removed and labelled steroids (E1 and E2) extracted with 1 mL of diethyl ether. The organic phases were separated and evaporated to dryness using nitrogen. Residues were dissolved in dichloromethane and dropped on silica gel thin layer chromatography plates (EMD Chemicals Inc., Gibbstown, N.J., USA) and eluted with a toluene/acetone (4:1) solvent system. Substrate [^14C]-E1 and metabolite [^14C]-E2 were identified by comparison with reference steroids and quantified using a Storm 860 system (Molecular Dynamics, Sunnyvale, Calif., USA).
T-47D cells were seeded in a 24-well plate (3000 cells/well) in 990 μL of medium supplemented with insulin (50 ng/mL) and 5% dextran-coated charcoal-treated FBS, which was used rather than untreated 10% FBS, to remove the remaining steroid hormones. […] The final concentration of ethanol in the well was adjusted to 0.1%. Additionally, 5 μL of a solution of [^14C]-estrone (American Radiolabeled Chemicals, Inc., St. Louis, Mo., USA) was added to obtain a final concentration of 60 nM. […] After incubation, the culture medium was removed and labeled steroids (E1 and E2) were extracted with 1 mL of diethyl ether. The organic phases were evaporated to dryness with nitrogen. Residues were dissolved in dichloromethane and dropped on silica gel thin layer chromatography plates (EMD Chemicals Inc., Gibbstown, N.J., USA) and eluted with toluene/acetone (4:1) as solvent system. Substrate [^14C]-E1 and metabolite [^14C]-E2 were identified by comparison with reference steroids (E1 and E2) and quantified using the Storm 860 system (Molecular Dynamics, Sunnyvale, Calif., USA).

MCF-7 cells = assay: Estrogenic activity in MCF-7 cells; on Estrogenicity (0.1 μM): key: — = no; + = weak; ++ = medium to strong; on Estrogenicity (1.0 μM): key: — = no; + = weak; ++ = medium to strong; type: cell-based, human; settings: 7 days; for Estrogenicity (1.0 μM) / Estrogenicity (0.1 μM): growth of estrogen-starved MCF-7 cells; for estrogenic activity on MCF-7 cells (FIG. 1): concentrations up to 5 μM
Experimental: MCF-7 cells were seeded with medium supplemented with insulin (50 ng/mL) and 5% dextran-coated charcoal treated FBS rather than 10% FBS to remove remaining hormones. Aliquots (100 μL) of the cell suspension were seeded in 96-well plates (3000 cells/well). […] Cells were grown either in the absence or presence of the compounds over a period of 7 days. Quantification of cell growth was determined by using the CellTiter 96®Aqueous Solution Cell Proliferation Assay (Promega, Nepean, ON, Canada) following the manufacturer's instructions. To determine the proliferative (estrogenic) activity, the cells were grown in the absence (control fixed as 100%) or presence of the tested compounds at the indicated concentrations.

[5] = Table 2 (17β-HSD1), [14C]-E1 60 nM, T-47D intact cells, 0.1 μM, read-out: Inhibition (0.1 μM)
[6] = Table 2 (17β-HSD1), [14C]-E1 60 nM, T-47D intact cells, 1 μM
[7] = [14C]-E1 (60 nM) into [14C]-E2, T-47D intact cells
[8] = [14C]-E1 (60 nM) into [14C]-E2, T-47D intact cells, 0.1 μM, read-out: Inhibition % (0.1 μM)

With C[C@]12CC[C@@H]3c4ccc(O)cc4CC[C@H]3[C@@H]1CC[C@H]2O [17α-E2 (2), 17α-estradiol] the “increase in uterine weight vs. control group” value (from here on “increase”) [1] was 3.6 fold.
C[C@@]12CC[C@@H]3c4ccc(O)cc4CC[C@H]3[C@@H]1CC[C@H]2O [18-epi-17α-E2 (4), (13α,17α)-estra-1(10),2,4-triene-3,17-diol] was tested, and the “increase” value [1] was 2.6 fold.
For C[C@@]12CC[C@@H]3c4ccc(O)cc4CC[C@H]3[C@@H]1CC[C@@H]2O [18-epi-17β-E2 (3), (13α,17β)-estra-1(10),2,4-triene-3,17-diol], the “increase” value [1] was 1.5 fold and the uterotrophic activity ([1]; uterus and vagina, OVX mice) was “no significant uterotrophic activity”.
With C[C@]12CC[C@](O)(Cc3ccccc3)C[C@@H]1CC[C@@H]1[C@@H]2CC[C@]2(C)C(=O)CC[C@@H]12 [CS-213, 3β-benzyl-3α-hydroxy-5α-androstan-17-one, reference compound] the “cell proliferation, % of basal” value ([2]; 0.1 μM) was 225% and the “cell proliferation, % of basal” value ([2]; 1 μM) was 396%.
CCN(Cc1ccccc1)C[C@@]1(O)CC[C@@]2(C)[C@@H](CC[C@@H]3[C@@H]2CC[C@]2(C)C(=O)CC[C@@H]32)C1 [Compound 7a, (3α,5α)-3{[benzyl(ethyl)amino]methyl}3-hydroxyandrostan-17-one] was tested, and the inhibition at 0.1 µM (17β-HSD3 [3]; 0.1 μM, read-out: Homo (%) (0.1 μM)) was 85%, the inhibition at 1 µM (17β-HSD3 [3]; 1 μM, read-out: Homo (%) (1 μM)) was 90% and the inhibition at 0.01 µM (17β-HSD3 [3]; [14C]-Δ4-dione 50 nM into [14C]-T, 0.01 μM, read-out: Homo (%) (0.01 μM)) was 42%. The inhibition at 0.1 µM (17β-HSD3 [4]; 0.1 μM, read-out: Intact cells (%) (0.1 μM)) was 86%, the inhibition at 1 µM (17β-HSD3 [4]; 1 μM, read-out: Intact cells (%) (1 μM)) was 94% and the “cell proliferation, % of basal” value ([2]; 0.1 μM) was 292%. For the same molecule, the “cell proliferation, % of basal” value ([2]; 1 μM) was 314%.
For C[C@]12CC[C@@H]3c4ccc(CC(=O)O)cc4CC[C@H]3[C@@H]1C[C@H](Cc1cccc(C(N)=O)c1)[C@@H]2O [Compound 31, [(16β,17β)-16-(3-carbamoylbenzyl)-17-hydroxyestra-1(10),2,4-trien-3-yl]acetic acid], the inhibition at 0.1 µM (17β-HSD1; [5]) was 12%, the inhibition at 1 µM (17β-HSD1; [6]) was 29% and the “Estrogenicity (1.0 μM)” value (MCF-7 cells) was “+”.
With C[C@]12CC[C@@H]3c4ccc(C(=O)O)cc4CC[C@H]3[C@@H]1C[C@H](Cc1cccc(C(N)=O)c1)[C@@H]2O [Compound 36, (16β,17β)-16-(3-carbamoylbenzyl)-17-hydroxyestra-1,3,5(10)-triene-3-carboxylic acid] the inhibition at 0.1 µM (17β-HSD1; [5]) was 5%, the inhibition at 1 µM (17β-HSD1; [6]) was 8% and the “Estrogenicity (1.0 μM)” value (MCF-7 cells) was “++”.
For C[C@]12CC[C@@H]3c4ccc(CN)cc4CC[C@H]3[C@@H]1C[C@H](Cc1cccc(C(N)=O)c1)[C@@H]2O [Compound 39, 3-{[(16β,17β)-3-(aminomethyl)-17-hydroxyestra-1,3,5(10)-trien-16-yl]methyl}benzamide], the inhibition at 0.1 µM (17β-HSD1; read-out: Inhibition (0.1 μM)) was 35%, the inhibition at 1 µM (17β-HSD1) was 73% and the “Estrogenicity (0.1 μM)” value (MCF-7 cells) was “++”. The “Estrogenicity (1.0 μM)” value (MCF-7 cells) was “++”.
In the case of CNC(=O)c1ccc2c(c1)CC[C@@H]1[C@@H]2CC[C@]2(C)[C@@H](O)[C@@H](Cc3cccc(C(N)=O)c3)C[C@@H]12 [Compound 41d, (16β,17β)-16-(3-carbamoylbenzyl)-17-hydroxy-N-methylestra-1,3,5(10)-triene-3-carboxamide], the inhibition at 0.1 µM (17β-HSD1; read-out: Inhibition (0.1 μM)) is reported as 3%, the inhibition at 1 µM (17β-HSD1) is reported as 5% and the “Estrogenicity (1.0 μM)” value (MCF-7 cells) is reported as “+”.
With C[C@]12CC[C@@H]3c4ccc(B(O)O)cc4CC[C@H]3[C@@H]1C[C@H](Cc1cccc(C(N)=O)c1)[C@@H]2O [Compound 46, [(16β,17β)-16-(3-carbamoylbenzyl)-17-hydroxyestra-1(10),2,4-trien-3-yl]boronic acid] the inhibition at 0.1 µM (17β-HSD1; [5]) was 39%, the “Estrogenicity (0.1 μM)” value (MCF-7 cells) was “++” and the “Estrogenicity (1.0 μM)” value (MCF-7 cells) was “++”.
C[C@]12CC[C@@H]3c4ccc(N)cc4CC[C@H]3[C@@H]1C[C@H](Cc1cccc(C(N)=O)c1)[C@@H]2O [Compound 50, 3-{[(16β,17β)-3-amino-17-hydroxyestra-1,3,5(10)-trien-16-yl]methyl}benzamide] was tested, and the inhibition at 0.1 µM (17β-HSD1; read-out: Inhibition (0.1 μM)) was 35%, the inhibition at 1 µM (17β-HSD1) was 43% and the “Estrogenicity (1.0 μM)” value (MCF-7 cells) was “+”.
For C[C@]12CC[C@@H]3c4ccc(F)cc4CC[C@H]3[C@@H]1C[C@H](Cc1cccc(C(N)=O)c1)[C@@H]2O [Compound 57, 3-{[(16β,17β)-3-fluoro-17-hydroxyestra-1(10),2,4-trien-16-yl]methyl}benzamide], the inhibition at 0.1 µM (17β-HSD1; read-out: Inhibition (0.1 μM)) was 48%, the inhibition at 1 µM (17β-HSD1) was 50% and the “Estrogenicity (1.0 μM)” value (MCF-7 cells) was “+”.
For C[C@]12CC[C@@H]3c4ccc(C(N)=O)cc4CC[C@H]3[C@@H]1C[C@H](Cc1cccc(C(N)=O)c1)[C@@H]2O [Compound 61, (16β,17β)-16-(3-carbamoylbenzyl)-17-hydroxyestra-1,3,5(10)-triene-3-carboxamide], the inhibition at 0.1 µM (17β-HSD1; [5]) was 3%, the inhibition at 1 µM (17β-HSD1; [6]) was 23% and the “Estrogenicity (1.0 μM)” value (MCF-7 cells) was “++”.
C[C@]12CC[C@@H]3c4ccc(CO)cc4CC[C@H]3[C@@H]1C[C@H](Cc1cccc(C(N)=O)c1)[C@@H]2O [II, 3-{[(16β,17β)-17-hydroxy-3-(hydroxymethyl)estra-1,3,5(10)-trien-16-yl]methyl}benzamide] gave an inhibition at 0.1 µM (17β-HSD1; [5]) of 56%, an inhibition at 1 µM (17β-HSD1; [6]) of 73% and an inhibition at 0.01 µM (17β-HSD1; [7]) of 14%. The inhibition at 0.1 µM (17β-HSD1; [8]) was 37%, the “estrogenic activity on MCF-7 cells (FIG. 1)” value (MCF-7 cells) was “significant estrogenic activity” and the “Estrogenicity (1.0 μM)” value (MCF-7 cells) was “+”.
Molecule C[C@]12CC[C@@H]3c4ccc(CCO)cc4CC[C@H]3[C@@H]1CC(Cc1cccc(C(N)=O)c1)[C@@H]2O (stereo partly drawn) [IV, 3-{[(17β)-17-hydroxy-3-(2-hydroxyethyl)estra-1(10),2,4-trien-16-yl]methyl}benzamide] has an inhibition at 0.1 µM (17β-HSD1; [5]) of 19%, an inhibition at 1 µM (17β-HSD1; [6]) of 57% and an inhibition at 0.01 µM (17β-HSD1; [7]) of 7%. The inhibition at 0.1 µM (17β-HSD1; [8]) was 17%, the “estrogenic activity on MCF-7 cells (FIG. 1)” value (MCF-7 cells) was “completely removed any estrogenic activity” and the “Estrogenicity (0.1 μM)” value (MCF-7 cells) was “+”. The “Estrogenicity (1.0 μM)” value (MCF-7 cells) was “++”.

From US11072632B2, “Inhibitors of 17β-HSD1, 17β-HSD3 and 17β-HSD10” (UNIVERSITÉ LAVAL, priority 2011, dated 2021)
